# Assay results from patent US20120124703A1, “NOVEL COPRINUS COMATUS AND TREMELLA MESENTERICA MUSHROOM STRAINS, PRODUCTS AND EXTRACTS THEREOF AND COMPOSITIONS COMPRISING THEM” (PALMED TEVA LTD, priority 2009, published 2012).
# Legend:
# [1] = Scavenging activity on DPPH radicals; type: biochemical; settings: standard BHA 1 mg/ml
# Method: Scavenging Activity on 1,1-diphenyl-2-picrylhydrazyl. The scavenging activity of extracts from C. comatus was measured on 1,1-diphenyl-2-picrylhydrazyl (DPPH) radicals. An aliquot of 0.5 ml of 0.1 mM DPPH radical (Sigma) in methanol was added to a test tube with 1 mL of mushroom ethanol or water extract of different concentrations (0.5 to 9 mg/mL). Methanol or water was used instead of the mushroom sample as a control. The reaction mixture was vortex-mixed at room temperature and the absorbance was determined immediately after mixing by measuring at 520 nm with a spectrophotometer. Inhibition of free radicals by DPPH was calculated as follows: I (%)=(Ablank−Asample/Ablank)×100, where I is inhibition (%), Ablank is the absorbance of the control reaction (containing all reagents except the test compound), and Asample is the absorbance of the test compound. The extract concentration providing 50% inhibition (EC50) was calculated from the graph of scavenging activity of radical percentage against extract concentration. Butylated hydroxyanisole (BHA) in concentration of 1 mg/ml methanol was used as the standard. Each value is expressed as mean±standard deviation (n=3).
# Free-radical scavenging is one of the known mechanisms by which antioxidants inhibit lipid oxidation. […] The decrease in absorbance is taken as a measure of the extent of radical-scavenging.
# [2] = Antioxidant activity, β-carotene bleaching method; type: biochemical
# Method: β-Carotene Bleaching Method. The antioxidant activity of C. comatus extracts was determined according to the β-carotene bleaching method. A reagent mixture containing 1 ml of (3-carotene (Sigma) solution (0.2 mg/ml in chloroform), 0.02 ml of linoleic acid (Sigma), and 0.2 ml of Tween 80 (Sigma) was evaporated to dryness under a nitrogen stream. Fifty milliliters of oxygenated distilled water and 0.2 ml of mushroom crude extracts (either ethanol or culture liquid) with different concentrations (2-8 mg/ml) were added. Pure methanol or water (0.2 ml) was used as the control, and the blank contained all the earlier chemicals except β-carotene. All these mixtures were then shaken to form a liposome solution and then incubated at 50° C. for 2 h. The absorbance of an aliquot (1 ml) of these liposome solutions at 470 nm was monitored by a spectrophotometer at time intervals of 20 min. Butylated hydroxyanisole (BHA) (Sigma) (2 mg/ml in methanol) was used as the standard. […] The bleaching rate (R) of 13-carotene was calculated according to
# where: ln—natural log, a—absorbance at time 0, b—absorbance at time t, and t—incubation interval 20, 40, 60, 80, 100, or 120 min.
# The antioxidant activity (AOA) was calculated, in terms of percent inhibition relative to the control, using Equation (2) […]
smiles,measurement,setting,value
"COc1ccc(O)c(C(C)(C)C)c1 [BHA, Butylated hydroxyanisole]",Scavenging ability (% of inhibition),[1],92.0%
same,Antioxidant activity (%) of water extracts,"[2]; extract concentration 2.0 mg/mL, BHA 2 mg/mL in methanol",98.2%
same,Antioxidant activity (%) of ethanol extracts,"[2]; extract concentration 2.0 mg/ml, BHA 2 mg/ml in methanol",98.2%
